Measurements from ChEMBL document CHEMBL1129766, “SAR of 2-benzyl-4-aminopiperidines: CGP 49823, an orally and centrally active non-peptide NK1 antagonist” (Bioorg Med Chem Lett, 1996).
The source made the active and inactive calls. The calls are words filed in the database; no cut-off is given here.

Columns and labels:
Gerbillinae [1] = experiment: (§1) Tested for inhibition of thumping behavior in gerbils induced by iv administration of SP-methyl ester 2 hours after peroral administration of 30 mg/kg of the compound; format: functional, organism-based; set-up: dose 30 mg/kg, route oral
[2] = molecular target: T1, Substance-K receptor (Bos taurus) (UniProt P05363); experiment: (§2) Compound was tested for inhibition of [125I]NKA radioligand binding to NK2 receptor from bovine bladder; conditions: concentration not given here
T1 sequence (whole entry): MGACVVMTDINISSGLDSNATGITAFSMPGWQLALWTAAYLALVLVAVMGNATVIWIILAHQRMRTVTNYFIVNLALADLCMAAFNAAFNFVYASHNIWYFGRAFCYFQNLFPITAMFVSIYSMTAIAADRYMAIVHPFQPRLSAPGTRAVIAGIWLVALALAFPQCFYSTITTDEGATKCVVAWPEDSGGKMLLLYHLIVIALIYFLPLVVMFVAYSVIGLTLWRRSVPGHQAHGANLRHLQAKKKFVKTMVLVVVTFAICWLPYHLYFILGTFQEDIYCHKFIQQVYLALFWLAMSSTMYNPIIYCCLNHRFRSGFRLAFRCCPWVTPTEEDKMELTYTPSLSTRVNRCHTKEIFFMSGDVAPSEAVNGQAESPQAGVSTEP

U373 MG = experiment: Compound was tested for inhibition of substance P induced phosphatidyl inositol turnover in human U-373 cells; format: functional, cell-based, U-373MG ATCC
Neuromedin-K receptor = molecular target: T2, Neuromedin-K receptor (Homo sapiens, UniProt P29371); experiment: Compound was tested for inhibition of [125I]eledoisin radioligand binding to NK3 receptor from gerbil cortex; NA means no activity; set-up: species or system Gerbillinae
T2 sequence (P29371 whole entry): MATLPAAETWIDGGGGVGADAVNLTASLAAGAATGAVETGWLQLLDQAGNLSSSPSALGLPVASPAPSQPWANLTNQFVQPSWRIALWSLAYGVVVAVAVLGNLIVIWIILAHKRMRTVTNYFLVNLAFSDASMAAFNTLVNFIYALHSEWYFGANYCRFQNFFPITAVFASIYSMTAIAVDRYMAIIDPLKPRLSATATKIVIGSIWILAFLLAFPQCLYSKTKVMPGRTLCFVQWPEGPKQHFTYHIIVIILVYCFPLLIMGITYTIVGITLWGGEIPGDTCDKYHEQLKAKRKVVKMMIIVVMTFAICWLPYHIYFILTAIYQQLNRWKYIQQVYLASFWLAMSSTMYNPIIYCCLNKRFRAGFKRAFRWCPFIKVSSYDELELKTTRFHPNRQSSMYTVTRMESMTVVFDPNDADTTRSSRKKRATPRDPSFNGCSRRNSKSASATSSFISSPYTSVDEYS

[3] = molecular target: T1, Substance-K receptor (Bos taurus); experiment: Compound was tested for inhibition of [125I]NKA radioligand binding to NK2 receptor from bovine bladder at 1 uM
Gerbillinae [4] = experiment: as §1; format: functional; conditions: route oral
[5] = molecular target: T3, Neuromedin-K receptor (Homo sapiens) (UniProt P29371); conditions: Gerbillinae
T3 sequence (whole entry): T2 sequence (P29371 whole entry)

Substance-K receptor = molecular target: T4, Substance-K receptor (Bos taurus, UniProt P05363); experiment: as §2
T4 sequence (P05363 whole entry): T1 sequence (whole entry)

Gerbillinae [6] = experiment: Compound was tested for inhibition of thumping behavior in gerbils induced by iv administration of SP-methyl ester 2 hours after peroral administration of 30 mg/kg of the compound.; format: functional; conditions: route oral
Gerbillinae [7] = experiment: Tested for inhibition of thumping behavior in gerbils induced by iv administration of SP-methyl ester 2 hours after intraperitoneal administration of 60 mg/kg of the compound; format: functional

SMILES: Cc1cc(C)cc(C(=O)N2CC[C@H](NCc3cnc4ccccc4c3)C[C@H]2Cc2ccccc2)c1
- inhibition (Gerbillinae [1]): 21%
- inhibition [2]: 22%
- IC50 (U373 MG): 210 nM

SMILES: COc1ccccc1CN[C@H]1C2CCN(CC2)[C@H]1C(c1ccccc1)c1ccccc1 [CP-96345]
- IC50 (Neuromedin-K receptor): Not Active
- IC50 (U373 MG): 9 nM
- inhibition [3]: 24%
- inhibition in vivo at 30 mg/kg (Gerbillinae [4]): 61%

SMILES: Cc1cc(C)cc(C(=O)N2CC[C@@H](NCc3ccnc4ccccc34)C[C@@H]2Cc2ccccc2)c1
- IC50 (U373 MG): 150 nM
- inhibition [3]: 5%
- inhibition in vivo at 30 mg/kg (Gerbillinae [4]): 54%
- NA [5]: inactive

SMILES: O=C(N[C@H]1CCN(C(=O)c2cc(Cl)cc(Cl)c2)[C@H](Cc2ccccc2)C1)c1ccnc2ccccc12
- IC50 (Substance-K receptor): 4500 nM
- inhibition in vivo at 30 mg/kg (Gerbillinae [6]): 66%
- IC50 (U373 MG): 24 nM

SMILES: Cc1cc(C)cc(C(=O)N2CC[C@H](NCc3ccnc4ccccc34)C[C@H]2Cc2ccccc2)c1
- IC50 (Substance-K receptor): 2790 nM
- IC50 (U373 MG): 12 nM
- inhibition in vivo at 30 mg/kg (Gerbillinae [4]): 34%

SMILES: Cc1cc(C)cc(C(=O)N2CC[C@@H](NCc3ccnc4ccccc34)C[C@H]2Cc2ccccc2)c1
- inhibition in vivo at 60 mg/kg (Gerbillinae [7]): 20%

SMILES: O=C(N[C@H]1CCN(C(=O)c2cc(C(F)(F)F)cc(C(F)(F)F)c2)[C@H](Cc2ccccc2)C1)c1cc(O)nc2ccccc12
- inhibition in vivo at 30 mg/kg (Gerbillinae [6]): 24%
- inhibition [2]: 28%
